≈ marks a conversion by molar mass, not a printed value.
Columns and labels:
Staphylococcus aureus [1] = experiment: Antibacterial activity against Staphylococcus aureus at 200 ug/disk after 24 hrs by agar disc-diffusion method; assay type: functional; details: read-out: IZ
Bacillus subtilis [2] = experiment: Antibacterial activity against Bacillus subtilis at 100 ug/disk after 24 hrs by agar disc-diffusion method; assay type: functional; details: read-out: IZ
Aspergillus niger [3] = experiment: Antifungal activity against Aspergillus niger at 200 ug/disk after 48 hrs by agar disc-diffusion method; assay type: functional; details: read-out: IZ
Klebsiella pneumoniae [4] = experiment: Antibacterial activity against Klebsiella pneumoniae at 200 ug/disk after 24 hrs by agar disc-diffusion method; assay type: functional; details: read-out: IZ
Curvularia lunata [5] = experiment: Antifungal activity against Curvularia lunata at 200 ug/disk after 48 hrs by agar disc-diffusion method; assay type: functional; details: read-out: IZ
Bacillus subtilis [6] = experiment: Antibacterial activity against Bacillus subtilis at 200 ug/disk after 24 hrs by agar disc-diffusion method; assay type: functional; details: read-out: IZ
Aspergillus niger [7] = experiment: Antifungal activity against Aspergillus niger at 100 ug/disk after 48 hrs by agar disc-diffusion method; assay type: functional; details: read-out: IZ
Escherichia coli [8] = experiment: Antibacterial activity against Escherichia coli at 100 ug/disk after 24 hrs by agar disc-diffusion method; assay type: functional; details: read-out: IZ
Fusarium solani [9] = experiment: Antifungal activity against Fusarium solani at 100 ug/disk after 48 hrs by agar disc-diffusion method; assay type: functional; details: read-out: IZ
Klebsiella pneumoniae [10] = experiment: Antibacterial activity against Klebsiella pneumoniae at 100 ug/disk after 24 hrs by agar disc-diffusion method; assay type: functional; details: read-out: IZ
Curvularia lunata [11] = experiment: Antifungal activity against Curvularia lunata at 100 ug/disk after 48 hrs by agar disc-diffusion method; assay type: functional; details: read-out: IZ
Fusarium solani [12] = experiment: Antifungal activity against Fusarium solani at 200 ug/disk after 48 hrs by agar disc-diffusion method; assay type: functional; details: read-out: IZ
Escherichia coli [13] = experiment: Antibacterial activity against Escherichia coli at 200 ug/disk after 24 hrs by agar disc-diffusion method; assay type: functional; details: read-out: IZ
Staphylococcus aureus [14] = experiment: Antibacterial activity against Staphylococcus aureus at 100 ug/disk after 24 hrs by agar disc-diffusion method; assay type: functional; details: read-out: IZ
Curvularia lunata [15] = experiment: Antifungal activity against Curvularia lunata after 48 hrs by microdilution susceptibility method; assay type: functional
Fusarium solani [16] = experiment: Antifungal activity against Fusarium solani after 48 hrs by microdilution susceptibility method; assay type: functional
Aspergillus niger [17] = experiment: Antifungal activity against Aspergillus niger after 48 hrs by microdilution susceptibility method; assay type: functional
Bacillus subtilis [18] = experiment: Antibacterial activity against Bacillus subtilis after 24 hrs by microdilution susceptibility method; assay type: functional
Staphylococcus aureus [19] = experiment: Antibacterial activity against Staphylococcus aureus after 24 hrs by microdilution susceptibility method; assay type: functional
Escherichia coli [20] = experiment: Antibacterial activity against Escherichia coli after 24 hrs by microdilution susceptibility method; assay type: functional
Klebsiella pneumoniae [21] = experiment: Antibacterial activity against Klebsiella pneumoniae after […] by microdilution susceptibility method; assay type: functional
[22] = Cytotoxicity against mink CCL64 cells upto 100 uM after 72 hrs by MTT assay in presence of 0.2% fetal bovine serum; assay type: cell-based; details: neovison vison, ccl64, 72 h
A549 = experiment: Cytotoxicity against human A549 cells upto 100 uM after 72 hrs by MTT assay in presence of 10% fetal bovine serum; assay type: functional, cell-based

Compound	zone of inhibition at 200 µg/disc (Staphylococcus aureus [1]) [mm]	zone of inhibition at 100 µg/disc (Bacillus subtilis [2]) [mm]	zone of inhibition at 200 µg/disc (Aspergillus niger [3]) [mm]	zone of inhibition at 200 µg/disc (Klebsiella pneumoniae [4]) [mm]	zone of inhibition at 200 µg/disc (Curvularia lunata [5]) [mm]	zone of inhibition at 200 µg/disc (Bacillus subtilis [6]) [mm]	zone of inhibition at 100 µg/disc (Aspergillus niger [7]) [mm]	zone of inhibition at 100 µg/disc (Escherichia coli [8]) [mm]	zone of inhibition at 100 µg/disc (Fusarium solani [9]) [mm]	zone of inhibition at 100 µg/disc (Klebsiella pneumoniae [10]) [mm]	zone of inhibition at 100 µg/disc (Curvularia lunata [11]) [mm]	zone of inhibition at 200 µg/disc (Fusarium solani [12]) [mm]	zone of inhibition at 200 µg/disc (Escherichia coli [13]) [mm]	zone of inhibition at 100 µg/disc (Staphylococcus aureus [14]) [mm]	MIC (Curvularia lunata [15]) [µg/mL]	MIC (Fusarium solani [16]) [µg/mL]	MIC (Aspergillus niger [17]) [µg/mL]	MIC (Bacillus subtilis [18]) [µg/mL]	MIC (Klebsiella pneumoniae [21]) [µg/mL]	further results
Cc1ccc(S(=O)(=O)c2c[nH]cc2S(=O)(=O)Cc2nnc(S)o2)cc1	14	12	21	13	18	16	17	11	16	11	15	19	14	11	–	–	–	–	–	–
Cc1ccc(S(=O)(=O)c2c[nH]cc2S(=O)(=O)Cc2nnc(S)n2N)cc1	28	25	36	23	35	27	34	20	29	21	28	33	24	24	–	–	–	–	–	–
CC(=O)N1CCN(c2ccc(OCC3COC(Cn4ccnc4)(c4ccc(Cl)cc4Cl)O3)cc2)CC1 (configuration not stated) [KETOCONAZOLE]	–	–	39	–	44	–	36	–	38	–	41	42	–	–	6.25 (≈ 11.8 µM)	12.5 (≈ 23.5 µM)	6.25 (≈ 11.8 µM)	–	–	–
O=S(=O)(Cc1nnc(S)s1)c1c[nH]cc1S(=O)(=O)c1ccc(Cl)cc1	30	28	28	28	25	32	26	22	26	23	23	31	27	25	100 (≈ 229 µM)	100 (≈ 229 µM)	200 (≈ 459 µM)	200 (≈ 459 µM)	200 (≈ 459 µM)	MIC (Staphylococcus aureus [19]): 100 µg/mL (≈ 229 µM); MIC (Escherichia coli [20]): 200 µg/mL (≈ 459 µM)
Nn1c(S)nnc1CS(=O)(=O)c1c[nH]cc1S(=O)(=O)c1ccccc1	32	31	34	22	36	35	30	22	33	21	34	36	26	28	100 (≈ 250 µM)	100 (≈ 250 µM)	100 (≈ 250 µM)	100 (≈ 250 µM)	100 (≈ 250 µM)	Activity [22]: Non-toxic; Activity (A549): Not toxic; MIC (Staphylococcus aureus [19]): 25 µg/mL (≈ 62.6 µM); MIC (Escherichia coli [20]): 100 µg/mL (≈ 250 µM)
O=C(O)c1cn(C2CC2)c2cc(N3CCNCC3)c(F)cc2c1=O [CIPROFLOXACIN]	38	36	–	42	–	42	–	40	–	37	–	–	45	34	–	–	–	6.25 (≈ 18.9 µM)	6.25 (≈ 18.9 µM)	–
Cc1ccc(S(=O)(=O)c2c[nH]cc2S(=O)(=O)Cc2nnc(S)s2)cc1	17	17	24	19	24	19	21	18	25	16	22	27	20	16	–	–	–	–	–	–
O=S(=O)(Cc1nnc(S)o1)c1c[nH]cc1S(=O)(=O)c1ccccc1	15	11	20	16	21	13	15	14	18	13	17	20	17	12	–	–	–	–	–	Activity [22]: Non-toxic; Activity (A549): Not toxic
O=S(=O)(Cc1nnc(S)s1)c1c[nH]cc1S(=O)(=O)c1ccccc1	20	21	29	21	29	23	24	16	25	17	28	27	20	18	–	–	–	–	–	Activity [22]: Non-toxic; Activity (A549): Not toxic
Nn1c(S)nnc1CS(=O)(=O)c1c[nH]cc1S(=O)(=O)c1ccc(Cl)cc1	35	34	37	28	41	38	34	23	35	26	38	40	25	32	12.5 (≈ 28.8 µM)	50 (≈ 115 µM)	25 (≈ 57.6 µM)	50 (≈ 115 µM)	50 (≈ 115 µM)	MIC (Staphylococcus aureus [19]): 12.5 µg/mL (≈ 28.8 µM); MIC (Escherichia coli [20]): 50 µg/mL (≈ 115 µM)
O=S(=O)(Cc1nnc(S)o1)c1c[nH]cc1S(=O)(=O)c1ccc(Cl)cc1	17	14	18	13	20	18	15	10	18	11	17	21	12	14	–	–	–	–	–	–
